Columns and labels:
[1] = Stability test in liver microsomes (mouse); type: in vitro ADME; conditions: mouse liver microsomes, 1 μM compound, 30 min
Excerpt: (§1) Example 5 Stability Test in Liver Microsomes
(§2) Both male CD-1 mouse pooled liver microsomes and male SD rat pooled liver microsomes were purchased from BioreclamationIVT Corporation, USA.
(§3) Phenacetin, glucose-6-phosphate dehydrogenase (G-6-PDH) and nicotinamide adenine dinucleotide phosphate (NADP) were all purchased from Sigma-Aldrich Corporation, USA. Glucose-6-phosphate (G-6-P) was purchased from Shanghai Eybridge Chemical Technology Co., Ltd.
(§4) Ten mM test compound stock solution: a certain amount of test compound was weighed, and dissolved with an appropriate volume of DMSO to prepare a stock solution with a concentration of 10 mM for use.
(§5) Reaction stopping solution: an appropriate amount of internal standard compound phenacetin was dissolved in acetonitrile to prepare a reaction stopping solution with a concentration of 1000 ng/mL for use at room temperature.
(§6) The test compound stock solution was diluted with an organic solvent (usually a mixture of acetonitrile, methanol and water with various ratios, depending on the solubility of the compound, if necessary, 1 N hydrochloric acid or 1 N sodium hydroxide would be added to facilitate solubilization) to the 0.1 mM (the final concentration of the compound in the reaction system was 1 μM) and the concentration percentage of the organic solvents in the incubation system no more than 1% (wherein the percentage of DMSO was required to be no more than 0.1%). An appropriate amount of 100 mM NADP, 500 mM G-6-P and 100 Unit/mL G-6-PDH were mixed and diluted with ultrapure water (the final system contains 1 mM NADP, 5 mM G-6-P and 1 Unit/mL G-6-PDH), pre-incubated in a 37° C. water bath for 10 minutes and then placed on ice for use as a NADPH regeneration solution. 20 mg/mL liver microsomes solution and 200 mM phosphate buffer was mixed, and diluted with ultrapure water to give a liver microsomes solution containing 2.5 mg/mL liver microsomes (the final concentration of the reaction system is 0.5 mg/mL) and 50 mM phosphate buffer. The diluted liver microsomes solution was mixed with 0.1 mM compound solution, a mixture of 100 mM EDTA, 300 mM MgCl2 solution, 200 mM phosphate buffer (the final system was 3 mM MgCl2, 1 mM EDTA and 50 mM phosphate buffer) and water in an appropriate volume was added. Finally, the NADPH regeneration solution was added, then the reaction solution was placed in a 37° C. water bath to start the reaction (the reaction time was 30 minutes), and the reaction was stopped by adding the ice-cold acetonitrile reaction stopping solution containing the internal standard. The 0-minute sample was not incubated in a 37° C. water bath, and its difference from the 30-minute sample further lies in that the ice-cold acetonitrile reaction stopping solution containing the internal standard was added first, and then the NADPH regeneration solution was added. The sample added with the reaction stopping internal standard solution was vortexed and mixed well, and then centrifuged at 4400 rpm for 10 minutes. The supernatant was taken and diluted ten times with 50% methanol for LC-MS/MS analysis.
(§7) LC-MS/MS was used to determine the concentration of the compound in the sample. The percentage of the remaining compound after 30 minutes of incubation comparing with that in the 0-minute sample was calculated using the peak area ratio of the compound to the internal standard as an indicator, to evaluate the metabolic stability of the compound.
(§8) Instrument: API4500, API4000 or LTQ Mass Spectrometer; the liquid phase is UHPLC system (Shimadzu LC-30 AD, model Nexra X2) including liquid delivery unit, column thermostat, detector and autosampler; or Agilent 1200 Binary Pump series HPLC and CTC Autosampler.
(§9) Chromatographic column: Waters XSELECT Hss T3 C18 (2.5 μm, 2.1×50 mm) or […] (5 μm, 2.0×50 mm)
(§10) Mobile phase: • A: water with 0.1% FA (formic acid) (with or without 0.1% ACN (acetonitrile)) • B: acetonitrile with 0.1% FA (formic acid).

[2] = Stability test in liver microsomes (rat); type: in vitro ADME; conditions: rat liver microsomes, 1 μM compound, 30 min
Excerpt: as §1, §2, §3, §4, §5, §6, §7, §8, §9, §10

[3] = Study on in vivo pharmacokinetics in mice; set-up: species or system mouse; conditions: mice, intragastric, 10 mg/kg
Excerpt: Example 6 Study on In Vivo Pharmacokinetics in Mice
Solutol HS15 was purchased from BASF, Germany, ethanol (anhydrous) was purchased from Nanjing Chemical Reagent Co., Ltd., physiological saline was purchased from Huayu (Wuxi) Pharmaceutical Co., Ltd., dimethyl sulfoxide (DMSO) and sodium carboxymethyl cellulose 800-1200 (CMC-Na) were purchased from Sinopharm Chemical Reagent Co., Ltd.
Preparation of ethanol/Solutol mixed solution (1:1, v/v): taking an appropriate amount of Solutol HS15 in a centrifuge tube and placing in a 37° C. water bath until dissolved, placing on the bench top to room temperature, taking 1 mL of Solutol in a centrifuge tube containing 1 mL of ethanol and mixing well to obtain the mixed solution.
Taking an appropriate amount of stock solution and placing in a blank centrifuge tube, adding an appropriate amount of ethanol/Solutol mixed solution prepared in advance, vortexing, then adding an appropriate amount of physiological saline, and mixing well until a transparent liquid.
3. Administration to Animals and Sample Collection:
Male ICR mice were purchased from Shanghai Lingchang Biotechnology Co., Ltd. 18 mice were randomly divided into intravenous administration group and intragastric administration group. The mice were fasted overnight before administration. The mice were withheld food but allowed to access water freely within 4 hours after administration, and allowed to freely access food and water after 4 hours. After anesthesia with isoflurane, blood was collected from the retroorbital venous plexus and placing in an centrifuge tube containing anticoagulant, and the centrifuge tube was stored in an box containing wet ice until the plasma was centrifuged.
The plasma samples were pre-treated and then analyzed by liquid chromatography-tandem mass spectrometry (LC-MS/MS), the instrument model was API5500. The analytical chromatographic column was Waters XSELECT HSS T3 C18 column (50×2.1 mm, 2.5 μm). In the mobile phases, deionized water containing 0.1% formic acid and 0.1% acetonitrile was used as the aqueous phase and acetonitrile containing 0.1% formic acid was used as the organic phase. The concentrations of the compound in the samples were determined as follows. Firstly, a standard curve was established, and the peak area ratios of the compound 19 to the internal standard in the standard curve were used as indexes. The theoretical concentrations of compound 19 and the peak area ratios of compound 19 to the internal standard were fitted with a quadratic regression equation to obtain the regression equation. The sample concentrations were calculated by measuring the peak area ratio of the compound of the test sample to the internal standard according to the standard curve.

[4] = Rat arthritis model induced by type II collagen (CIA); type: in vivo; conditions: 4 mg/kg oral once a day, CIA rats
Method: Example 9 Therapeutic Effect of the Compound of the Present Invention on a Rat Arthritis Model Induced by Type II Collagen
An appropriate amount of bovine type II collagen (CII, Chondrex (Redmond, WA, USA), Cat #20021) was weighed and dissolved in 0.1 mole of acetic acid (SPGC Sinopharm Chemical Reagent Co., Ltd (Shanghai, P.R.China), Cat #: 10000218.), which was formulated into a solution with a concentration of 6 mg/mL, stirred at 4° C. overnight, and added with an equal volume of Freund's incomplete adjuvant (Sigma-Aldrich. (St. Louis, MO, USA), Cat #: SLBW0366.), fully emulsified to prepare an emulsion with a CII concentration of 3 mg/mL. […]
The paw volume was measured on day 8 after immunization, and the left and right hind paw volumes (V) were measured every day after the paw volume increase was detected. […]
The area under the curve (AUC) of the average paw volume change is the area under the curve of the arthrosis score change calculated by the trapezoid method, and the calculation formula is: AUCpaw volume=½×(APSd1+APSd2)λ(d2−d1)+½×(APSd2+APSd3)×(d3-d2)+. . . +½×(APSdn+APSd(n-1))×(dn−dn-1)
ED50 is calculated by XLfit software according to the AUC inhibition ratio of the area under the curve of the average paw volume change. […]

MLM, percentage of remaining compound after 30 minutes of incubation [1]: 76.3%
RLM, percentage of remaining compound after 30 minutes of incubation [2]: 81.0%
T1/2 [3]: 1.5 h
C8 h ([3]; plasma at 8 h): 143 ng/mL
Compound: C[C@H]1CN(C2COC2)CCN1c1ccc(Nc2cc(-c3ccnc(N4CCn5c(cc6c5CC(C)(C)C6)C4=O)c3CO)cn(C)c2=O)nc1 [GDC-0853, fenebrutinib, reference compound]
paw volume compared with vehicle control group [4]: significantly reduced

Reference: patent US12070457B2, “Substituted pyridines, pyridazines, pyrimidines, and 1,2,3-triazines as bruton's tyrosine kinase inhibitors” (HUTCHISON MEDIPHARMA LIMITED, priority 2020, dated 2024)
